Source: article PMC3580017 (Journal of natural products, 2013)

Test system: HT-29 human colon cancer cells
Test: Cytotoxicity against HT-29 human colon cancer cells
Assay type: cell-based
Settings: HT-29 versus CCD-112CoN

## CCCC/C=C/C=C/C=C/[C@@H]1CC[C@@H](O)[C@H](C)N1C [Compound 1, (2S,3R,6S)-6-((1E,3E,5E)-deca-1,3,5-trien-1-yl)-1,2-dimethylpiperidin-3-ol]
  selectivity ratio for cancerous colon cells versus normal colon cells: approximately 4
